Consider eleven compounds from ChEMBL document CHEMBL1201862, “PubChem BioAssay data set” (2004).

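Protocol summary: plate cells (96-well), add compound at 5 concentrations, incubate 48 h, interpolate endpoints linearly. GI50 marks 50% less growth.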 Calls of active or inactive are those of the source. No stated cut-off is given here; in the data, active = GI50 up to about 1.1 µM and inactive = higher.

Holding throughout (assay): NCI-60 cell line screen, 48 h
Experiment [1] relates to BT-549.
Experiment [2] has as its system K562.
The test system of experiment [3] is NCI-H460.
Experiment [4] concerns HCT-116.
Experiment [5] concerns CCRF-CEM.
The subject of experiment [6] is SK-OV-3.
For experiment [7], the system named is ACHN.
Experiment [8] deals with LOX IMVI.
For experiment [9], the system named is SK-MEL-2.
Experiment [10] relates to SW-620.
The test system of experiment [11] is SNB-19.
Experiment [12] concerns MDA-MB-231.
Experiment [13] deals with NCI-H522.
Experiment [14] has as its system RXF 393.
In experiment [15] the test system is SK-MEL-5.
Experiment [16] relates to Malme-3M.
Experiment [17] has as its system COLO 205.
Experiment [18] relates to TK-10.
Experiment [19] concerns HL-60.
In experiment [20] the test system is OVCAR-3.

For `Clc1sc(Cl)c2c1[C@@H](Cl)C[C@@H]2Br`, the GI50 was > 100 µM (inactive) in experiment [1]; 34.2 µM (inactive) in [2]; 71.1 µM (inactive) in [3]; > 100 µM (inactive) in experiment [4]; 33.3 µM (inactive) in [5]; > 100 µM (inactive) in [6]. Also, the GI50 in experiment [7] is > 100 µM (inactive); in experiment [8], 33.8 µM (inactive); in experiment [9] it was > 100 µM (inactive); in [10] it was 45.6 µM (inactive); in [11], > 100 µM (inactive); in experiment [12], > 100 µM (inactive). Besides, the GI50 in experiment [13] is 30.8 µM (inactive); in experiment [14], 78.3 µM (inactive); in experiment [15], > 100 µM (inactive); in [16], 22.8 µM (inactive); in experiment [17] it was > 100 µM (inactive); in experiment [18] it was > 100 µM (inactive).
Turning to `O=P(Oc1ccccc1)(Oc1ccccc1)Oc1c[nH]c2ccccc12`, the GI50 in experiment [1] was 17 µM (inactive); in experiment [2], 10.7 µM (inactive); in [3], 12.8 µM (inactive); in [4] it was 15.2 µM (inactive); in [5], 0.141 µM (active); in experiment [19], 21.7 µM (inactive). The GI50 in experiment [6] was 3.44 µM (inactive); in experiment [8], 14.6 µM (inactive); in experiment [9], 5.47 µM (inactive); in experiment [10] it was 13.4 µM (inactive); in [11], 13.1 µM (inactive); in [12], 11.4 µM (inactive). The GI50 in [14] is 13.7 µM (inactive); in experiment [20], 14.5 µM (inactive); in experiment [15], 11.3 µM (inactive); in experiment [16], 16.2 µM (inactive); in experiment [17] it was 2.37 µM (inactive); in experiment [18], 12.1 µM (inactive).
In the case of `C=C1c2ccccc2Oc2nc3nc(N)c(C#N)c(N)c3c(N)c21`, the GI50 in experiment [1] was 39.9 µM (inactive); in [2], 40.7 µM (inactive); in experiment [3], 16 µM (inactive); in experiment [4], 22.9 µM (inactive); in experiment [5], 23.7 µM (inactive); in [19], 21.6 µM (inactive). In addition, the GI50 was 24.1 µM (inactive) in experiment [6]; 40.5 µM (inactive) in experiment [7]; 24.5 µM (inactive) in experiment [8]; 17.8 µM (inactive) in experiment [9]; 30.5 µM (inactive) in [10]; 40.7 µM (inactive) in experiment [11]. The GI50 in [12] was 47.6 µM (inactive); in experiment [14] it was 58.1 µM (inactive); in [20], 16.6 µM (inactive); in [15], 17.6 µM (inactive); in experiment [16] it was 22.8 µM (inactive); in experiment [17] it was 19.6 µM (inactive). The GI50 in experiment [18] is 39.1 µM (inactive).
On to `S=c1[nH]nc(Cn2c3ccc(Br)cc3c3nc4ccccc4nc32)o1`, for which the GI50 in experiment [1] is > 63.2 µM (inactive); in experiment [2] it was 35.1 µM (inactive); in experiment [3] it was 36.9 µM (inactive); in [4], 28.3 µM (inactive); in experiment [5], 24.7 µM (inactive); in experiment [6], > 78.5 µM (inactive). The GI50 was 39.6 µM (inactive) in experiment [7]; 8.67 µM (inactive) in experiment [9]; 18.7 µM (inactive) in experiment [10]; 53 µM (inactive) in experiment [11]; > 45.4 µM (inactive) in experiment [12]; 20.2 µM (inactive) in [13]. The GI50 in [14] was 14.8 µM (inactive); in experiment [20], 29.9 µM (inactive); in experiment [15], 31.6 µM (inactive); in [16], 42.3 µM (inactive); in experiment [17] it was 46.9 µM (inactive); in experiment [18] it was 69.5 µM (inactive).
Consider `CCCCCCCCCC(=O)NCCc1c[nH]c2ccc(OC)cc12`, for which the GI50 was 18.6 µM (inactive) in [1]; 55 µM (inactive) in [2]; 23.3 µM (inactive) in experiment [3]; 21.4 µM (inactive) in experiment [4]; 7.26 µM (inactive) in experiment [5]; 17.4 µM (inactive) in experiment [6]. Moreover, the GI50 in [7] is 16.7 µM (inactive); in experiment [8] it was 13.8 µM (inactive); in [9] it was 16.1 µM (inactive); in experiment [10], 18.2 µM (inactive); in experiment [11], 16.5 µM (inactive); in experiment [12] it was 15.1 µM (inactive). The GI50 in experiment [13] is 16 µM (inactive); in [14] it was 19 µM (inactive); in experiment [20], 15.9 µM (inactive); in experiment [15], 18.5 µM (inactive); in experiment [16], 18.2 µM (inactive); in experiment [17], 23.8 µM (inactive). Besides, in experiment [18], the GI50 is 18.2 µM (inactive).
As for `Clc1n[nH]c2ccccc12`, the GI50 in [1] was 14.7 µM (inactive); in [2] it was > 100 µM (inactive); in experiment [3], > 100 µM (inactive); in experiment [4], > 100 µM (inactive); in [5], > 100 µM (inactive); in experiment [19] it was > 100 µM (inactive). For the same compound, the GI50 in experiment [6], in experiment [7], in experiment [9], in [10], in [11] and in experiment [12] was > 100 µM (inactive) each time. Besides, the GI50 in [13], in [14], in experiment [20], in [15], in [16] and in [17] was > 100 µM (inactive) in each case. For the same compound, the GI50 in experiment [18] was > 100 µM (inactive).
Take `C=CC(CCc1ccc(C(=O)OCC)cc1)c1c(N)nc(N)[nH]c1=O` (configuration not stated): the GI50 in experiment [1] is > 100 µM (inactive); in experiment [2], > 100 µM (inactive); in experiment [3], > 100 µM (inactive); in [4] it was > 100 µM (inactive); in [5], 73.3 µM (inactive); in [19], 28.5 µM (inactive). The GI50 in experiment [6] is > 100 µM (inactive); in experiment [8] it was 45.3 µM (inactive); in experiment [9], > 100 µM (inactive); in [10] it was > 100 µM (inactive); in [11] it was > 100 µM (inactive); in experiment [12], > 100 µM (inactive). Also, the GI50 is > 100 µM (inactive) in experiment [14]; 72.1 µM (inactive) in experiment [20]; 23.5 µM (inactive) in experiment [15]; 89.9 µM (inactive) in [16]; > 100 µM (inactive) in experiment [17]; 60.3 µM (inactive) in [18].
Regarding `COc1ccc(-c2c(/C=N/OCC(=O)O)c3sc4ccccc4n3c2/C=N/OCC(=O)O)cc1`, the GI50 in experiment [1], in experiment [2], in experiment [3], in experiment [4], in experiment [5] and in experiment [6] was > 50 µM (inactive) throughout. Besides, the GI50 in experiment [7], in [8], in experiment [9], in [10], in [11] and in experiment [12] was > 50 µM (inactive) each time. For the same compound, the GI50 in experiment [13], in experiment [14], in experiment [20], in experiment [15], in [16] and in [17] was > 50 µM (inactive) throughout. Also, in experiment [18], the GI50 is > 50 µM (inactive).
With `NC(=S)N/N=C1\CCCC1C(O)(C(F)(F)Cl)C(F)(F)Cl` (configuration not stated), the GI50 in [1], in experiment [2], in [3], in [4], in [5] and in experiment [6] was > 10 µM (inactive) in each case. In addition, the GI50 in experiment [7], in experiment [8], in [9], in experiment [10], in experiment [11] and in [12] was > 10 µM (inactive) in each case. For the same compound, the GI50 in experiment [13] is > 10 µM (inactive); in [14], > 10 µM (inactive); in experiment [20], > 10 µM (inactive); in experiment [15], 2.01 µM (inactive); in [16], > 10 µM (inactive); in [17], > 10 µM (inactive). Further, in experiment [18], the GI50 is > 10 µM (inactive).
In the case of `C=C1CCC[C@@H](C)C(O)[C@@H]2OC(=O)C(=C)[C@@H]2C[C@@H](OC(C)=O)[C@@]2(C)CC[C@@H]1O2` (some centres not stated), the GI50 in experiment [1] was 7.52 µM (inactive); in experiment [2], 5.5 µM (inactive); in [4], 6.97 µM (inactive); in experiment [5], 1.54 µM (inactive); in experiment [6], 10.8 µM (inactive); in experiment [7] it was 6.89 µM (inactive). Also, the GI50 in experiment [9] was 8.34 µM (inactive); in experiment [10], 8.3 µM (inactive); in experiment [11], 45.2 µM (inactive); in experiment [12], 8.36 µM (inactive); in experiment [13] it was 0.916 µM (active); in experiment [14], 6.49 µM (inactive). For the same compound, the GI50 is 5.37 µM (inactive) in experiment [20], 6.92 µM (inactive) in experiment [15], 6.37 µM (inactive) in [17] and 7.96 µM (inactive) in experiment [18].
With `Cc1ccc(N2C=Nn3c(nc4sc5c(c4c3=O)CCCC5)C2)cc1`, the GI50 was > 100 µM (inactive) in [1]; 38.5 µM (inactive) in experiment [2]; 50.1 µM (inactive) in [3]; 41.2 µM (inactive) in [4]; 45.2 µM (inactive) in experiment [5]; > 100 µM (inactive) in experiment [6]. The GI50 in experiment [7] is 46.5 µM (inactive); in experiment [8], 47.4 µM (inactive); in experiment [9] it was > 100 µM (inactive); in experiment [10] it was 51.8 µM (inactive); in experiment [11], 78.2 µM (inactive); in experiment [12], 43.6 µM (inactive). The GI50 is 39.1 µM (inactive) in experiment [13]; 24.8 µM (inactive) in [14]; 49.4 µM (inactive) in [20]; 29.8 µM (inactive) in experiment [15]; 49.4 µM (inactive) in [16]; 67.8 µM (inactive) in experiment [17]. For the same compound, the GI50 in experiment [18] was 86.1 µM (inactive).
